Target: T1, Human Polθ polymerase domain (aa1820-2590) (Homo sapiens, UniProt O75417)
T1 construct: Human Polθ polymerase domain (aa1820-2590) was expressed in E. coli; made in house; host or cells: E. coli
T1 sequence (O75417 1820-2590): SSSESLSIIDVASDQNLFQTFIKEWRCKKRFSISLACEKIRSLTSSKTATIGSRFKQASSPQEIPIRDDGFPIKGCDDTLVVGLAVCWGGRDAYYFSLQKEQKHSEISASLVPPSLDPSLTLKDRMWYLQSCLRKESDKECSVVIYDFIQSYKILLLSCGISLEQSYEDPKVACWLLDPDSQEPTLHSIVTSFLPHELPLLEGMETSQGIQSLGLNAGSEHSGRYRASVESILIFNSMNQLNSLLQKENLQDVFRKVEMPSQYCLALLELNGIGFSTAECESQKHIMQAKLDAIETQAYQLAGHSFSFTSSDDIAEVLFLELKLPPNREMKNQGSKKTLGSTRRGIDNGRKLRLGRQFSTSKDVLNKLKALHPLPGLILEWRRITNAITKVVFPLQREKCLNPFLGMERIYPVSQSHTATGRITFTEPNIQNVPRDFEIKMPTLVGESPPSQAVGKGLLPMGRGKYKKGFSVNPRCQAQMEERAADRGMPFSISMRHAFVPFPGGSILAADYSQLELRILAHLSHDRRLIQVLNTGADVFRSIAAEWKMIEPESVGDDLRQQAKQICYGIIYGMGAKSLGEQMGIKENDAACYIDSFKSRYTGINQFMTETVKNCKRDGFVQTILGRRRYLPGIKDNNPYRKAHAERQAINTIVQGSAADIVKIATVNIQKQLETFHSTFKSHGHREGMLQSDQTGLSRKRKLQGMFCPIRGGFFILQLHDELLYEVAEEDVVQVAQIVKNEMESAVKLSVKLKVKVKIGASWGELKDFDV
Experiment: Polθ Polymerase Domain Kinact/KI Assay (PicoGreen)
Type: biochemical
Conditions: 0.8 nM Polθ, 100 nM DNA substrate, kobs vs [I] fit for 2-step covalent inhibitor
Outline: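 Time-dependent inhibition was followed with 0.8 nM polymerase domain, 100 nM DNA substrate and […], reactions quenched over 60 min and quantified by PicoGreen. Kinact and KI came from a secondary plot of kobs against inhibitor concentration.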

SMILES | Kinact/Kl
C=CC(=O)N1CC(n2cnc(CN3C[C@H]4CC(=O)N(c5cc(C(F)(F)F)cc(C)n5)[C@@H]4C(=O)N(C)c4cccc(F)c43)c2)C1 [Example 38, (3aR,11aS)-5-((1-(1-acryloylazetidin-3-yl)-1H-imidazol-4-yl)methyl)-6-fluoro-10-methyl-1-(6-methyl-4-(trifluoromethyl)pyridin-2-yl)-1,3a,4,5,10,11a-hexahydro-2H-benzo[b]pyrrolo[2,3-f][1,4]diazocine-2,11(3H)-dione] | 2.39e+06 M⁻¹ s⁻¹
C=CC(=O)N1CC(n2cnc(CN3C[C@H]4CC(=O)N(c5cc(C(F)(F)F)cc(C)n5)[C@@H]4C(=O)N(C)c4cccc(Cl)c43)c2)C1 [Example 39, (3aR,11aS)-5-((1-(1-acryloylazetidin-3-yl)-1H-imidazol-4-yl)methyl)-6-chloro-10-methyl-1-(6-methyl-4-(trifluoromethyl)pyridin-2-yl)-1,3a,4,5,10,11a-hexahydro-2H-benzo[b]pyrrolo[2,3-f][1,4]diazocine-2,11(3H)-dione] | 3.42e+06 M⁻¹ s⁻¹
C=CC(=O)N1CC(n2cnc(CN3C[C@H]4CC(=O)N(c5cc(C(F)(F)F)cc(C)n5)[C@@H]4C(=O)N(C)c4cc(F)ccc43)c2)C1 [Example 40, (3aR,11aS)-5-((1-(1-acryloylazetidin-3-yl)-1H-imidazol-4-yl)methyl)-8-fluoro-10-methyl-1-(6-methyl-4-(trifluoromethyl)pyridin-2-yl)-1,3a,4,5,10,11a-hexahydro-2H-benzo[b]pyrrolo[2,3-f][1,4]diaocine-2,11(3H)-dione] | 850000 M⁻¹ s⁻¹
C=CC(=O)N1CC(n2ccc(CN3C[C@H]4CC(=O)N(c5cc(C(F)(F)F)cc(C)n5)[C@@H]4C(=O)N(C)c4cc(F)ccc43)n2)C1 [Example 41, (3aR,11aS)-5-((1-(1-acryloylazetidin-3-yl)-1H-pyrazol-3-yl)methyl)-8-fluoro-10-methyl-1-(6-methyl-4-(trifluoromethyl)pyridin-2-yl)-1,3a,4,5,10,11a-hexahydro-2H-benzo[b]pyrrolo[2,3-f][1,4]diazocine-2,11(3H)-dione] | 1.38e+06 M⁻¹ s⁻¹
C=CC(=O)N1CC(n2cnc(CN3C[C@H]4CC(=O)N(c5cc(C(F)(F)F)cc(C)n5)[C@@H]4C(=O)N(C)c4cccc(Cl)c43)n2)C1 [Example 42, (3aR,11aS)-5-((1-(1-acryloylazetidin-3-yl)-1H-1,2,4-triazol-3-yl)methyl)-6-chloro-10-methyl-1-(6-methyl-4-(trifluoromethyl)pyridin-2-yl)-1,3a,4,5,10,11a-hexahydro-2H-benzo[b]pyrrolo[2,3-f][1,4]diazocine-2,11(3H)-dione] | 790000 M⁻¹ s⁻¹
Cc1cc(C(F)(F)F)cc(N2C(=O)C[C@@H]3CN(CCCOC4CN(C(=O)/C=C/CN(C)C)C4)c4c(F)cccc4N(C)C(=O)[C@H]32)n1 [Example 43, (3aR,11aS)-5-(3-((1-((E)-4-(dimethylamino)but-2-enoyl)azetidin-3-yl)oxy)propyl)-6-fluoro-10-methyl-1-(6-methyl-4-(trifluoromethyl)pyridin-2-yl)-1,3a,4,5,10,11a-hexahydro-2H-benzo[b]pyrrolo[2,3-f][1,4]diazocine-2,11(3H)-dione] | 1.9e+06 M⁻¹ s⁻¹
Cc1cc(C(F)(F)F)cc(N2C(=O)C[C@@H]3CN(CCCOC4CN(C(=O)/C=C/CN(C)C)C4)c4c(Cl)cccc4N(C)C(=O)[C@H]32)n1 [Example 44, (3aR,11aS)-6-chloro-5-(3-((1-((E)-4-(dimethylamino)but-2-enoyl)azetidin-3-yl)oxy)propyl)-10-methyl-1-(6-methyl-4-(trifluoromethyl)pyridin-2-yl)-1,3a,4,5,10,11a-hexahydro-2H-benzo[b]pyrrolo[2,3-f][1,4]diazocine-2,11(3H)-dione] | 2.22e+06 M⁻¹ s⁻¹
C=CC(=O)N1CCN2CCN(CCN3C[C@H]4CC(=O)N(c5cc(C(F)(F)F)cc(C)n5)[C@@H]4C(=O)N(C)c4cccc(F)c43)C(=O)[C@@H]2C1 [Example 45, (3aR,11aS)-5-(2-((S)-8-acryloyl-1-oxooctahydro-2H-pyrazino[1,2-a]pyrazin-2-yl)ethyl)-6-fluoro-10-methyl-1-(6-methyl-4-(trifluoromethyl)pyridin-2-yl)-1,3a,4,5,10,11a-hexahydro-2H-benzo[b]pyrrolo[2,3-f][1,4]diazocine-2,11(3H)-dione] | 310000 M⁻¹ s⁻¹
C=CC(=O)N1CCN2CCN(CCN3C[C@H]4CC(=O)N(c5cc(C(F)(F)F)cc(C)n5)[C@@H]4C(=O)N(C)c4cccc(F)c43)C(=O)[C@H]2C1 [Example 46, (3aR,11aS)-5-(2-((R)-8-acryloyl-1-oxooctahydro-2H-pyrazino[1,2-a]pyrazin-2-yl)ethyl)-6-fluoro-10-methyl-1-(6-methyl-4-(trifluoromethyl)pyridin-2-yl)-1,3a,4,5,10,11a-hexahydro-2H-benzo [b]pyrrolo[2,3-f][1,4] diazocine-2,11(3H)-dione] | 480000 M⁻¹ s⁻¹
C=CC(=O)N1CCN2CC(=O)N(CCN3C[C@H]4CC(=O)N(c5cc(C(F)(F)F)cc(C)n5)[C@@H]4C(=O)N(C)c4cccc(F)c43)C[C@@H]2C1 [Example 47, (3aR,11aS)-5-(2-((S)-8-acryloyl-3-oxooctahydro-2H-pyrazino[1,2-a]pyrazin-2-yl)ethyl)-6-fluoro-10-methyl-1-(6-methyl-4-(trifluoromethyl)pyridin-2-yl)-1,3a,4,5,10,11a-hexahydro-2H-benzo[b]pyrrolo[2,3-f][1,4]diazocine-2,11(3H)-dione] | 140000 M⁻¹ s⁻¹
C=CC(=O)N1CCN2CC(=O)N(CCN3C[C@H]4CC(=O)N(c5cc(C(F)(F)F)cc(C)n5)[C@@H]4C(=O)N(C)c4cccc(F)c43)C[C@H]2C1 [Example 48, (3aR,11aS)-5-(2-((R)-8-acryloyl-3-oxooctahydro-2H-pyrazino[1,2-a]pyrazin-2-yl)ethyl)-6-fluoro-10-methyl-1-(6-methyl-4-(trifluoromethyl)pyridin-2-yl)-1,3a,4,5,10,11a-hexahydro-2H-benzo[b]pyrrolo[2,3-f][1,4]diazocine-2,11(3H)-dione] | 110000 M⁻¹ s⁻¹
C=CC(=O)N1CCc2c(ncn2CCN2C[C@H]3CC(=O)N(c4cc(C(F)(F)F)cc(C)n4)[C@@H]3C(=O)N(C)c3cccc(F)c32)C1 [Example 49, (3aR,11aS)-5-(2-(5-acryloyl-4,5,6,7-tetrahydro-1H-imidazo[4,5-c]pyridin-1-yl)ethyl)-6-fluoro-10-methyl-1-(6-methyl-4-(trifluoromethyl)pyridin-2-yl)-1,3a,4,5,10,11a-hexahydro-2H-benzo[b]pyrrolo[2,3-f][1,4]diazocine-2,11(3H)-dione] | 340000 M⁻¹ s⁻¹
C=CC(=O)N1CCc2ncn(CCN3C[C@H]4CC(=O)N(c5cc(C(F)(F)F)cc(C)n5)[C@@H]4C(=O)N(C)c4cccc(F)c43)c2C1 [Example 50, (3aR,11aS)-5-(2-(5-acryloyl-4,5,6,7-tetrahydro-3H-imidazo[4,5-c]pyridin-3-yl)ethyl)-6-fluoro-10-methyl-1-(6-methyl-4-(trifluoromethyl)pyridin-2-yl)-1,3a,4,5,10,11a-hexahydro-2H-benzo[b]pyrrolo[2,3-f][1,4]diazocine-2,11(3H)-dione] | 190000 M⁻¹ s⁻¹
C=CC(=O)N1CC(N2CCN(C(=O)CN3C[C@H]4CC(=O)N(c5cc(C(F)(F)F)cc(C)n5)[C@@H]4C(=O)N(C)c4cccc(F)c43)CC2)C1 [Example 51, (3aR,11aS)-5-(2-(4-(1-acryloylazetidin-3-yl)piperazin-1-yl)-2-oxoethyl)-6-fluoro-10-methyl-1-(6-methyl-4-(trifluoromethyl)pyridin-2-yl)-1,3a,4,5,10,11a-hexahydro-2H-benzo[b]pyrrolo[2,3-f][1,4]diazocine-2,11(3H)-dione] | 210000 M⁻¹ s⁻¹
C=CC(=O)N1CC2(C1)CN(C(=O)CN1C[C@H]3CC(=O)N(c4cc(C(F)(F)F)cc(C)n4)[C@@H]3C(=O)N(C)c3cccc(F)c31)C[C@@H](C)N2 [Example 52, (3aR,11aS)-5-(2-((R)-2-acryloyl-6-methyl-2,5,8-triazaspiro[3.5]nonan-8-yl)-2-oxoethyl)-6-fluoro-10-methyl-1-(6-methyl-4-(trifluoromethyl)pyridin-2-yl)-1,3a,4,5,10,11a-hexahydro-2H-benzo[b]pyrrolo[2,3-f][1,4]diazocine-2,11(3H)-dione] | 190000 M⁻¹ s⁻¹
C=CC(=O)N1CCN(c2cc(N3C[C@H]4CC(=O)N(c5cc(C(F)(F)F)cc(C)n5)[C@@H]4C(=O)N(C)c4cccc(F)c43)ccn2)CC1 [Example 53, (3aR,11aS)-5-(2-(4-acryloylpiperazin-1-yl)pyridin-4-yl)-6-fluoro-10-methyl-1-(6-methyl-4-(trifluoromethyl)pyridin-2-yl)-1,3a,4,5,10,11a-hexahydro-2H-benzo[b]pyrrolo[2,3-f][1,4]diazocine-2,11(3H)-dione] | 24000 M⁻¹ s⁻¹
